Measurements taken from patent US20140066365A1, “USE OF CALIXARENES ASSOCIATED WITH AN ANTIBIOTIC IN THE TREATMENT OF BACTERIAL INFECTIONS” (priority 2011, published 2014).
Converted amounts (≈) assume the structure as drawn. Like-named read-outs stand apart in the source and are kept apart here.

Assays:
[1] = test system: EcR1: Penicillinase-Producing Escherichia coli without Associated Resistance; test: Antibiogram, MIC by the VITEK 2 system; assay type: cell-based; settings: for CA-SFM Interpretation: EcR1, MIC against Cc CA-SFM 2011; for CLSI Interpretation: EcR1, MIC against Cc CLSI 2011; for EUCAST Interpretation: EcR1, MIC against Cc EUCAST 2011; for Results: EcR1, interpretation of the MIC, Table A1; for MIC: Escherichia coli
Method: (§1) 5.1 EcR1: Penicillinase-Producing Escherichia coli without Associated Resistance The bacterial and antibiogramidentification is carried out by the VITEK 2 system (bioMérieux) and by the disk diffusion technique.

[2] = test system: EcR1: Penicillinase-Producing Escherichia coli without Associated Resistance; test: Antibiogram by the disk diffusion technique; assay type: cell-based; settings: Table A1; for Diameter: EcR1, disk diffusion; for Results: EcR1, interpretation of the diameter against Dmin Dmax
Method: as §1

[3] = test system: cephalosporinase-hyperproducing strain of Escherichia coli (EcR2); test: MIC of the compounds used alone, microdilution in a liquid medium (CLSI); assay type: cell-based; settings: Escherichia coli, antibiotic alone (second value of cell), read-out: Initial MICs
Excerpt: (§2) The MICs of the antibiotics were previously defined for each strain, by the method of microdilution in a liquid medium (CLSI (Clinical and Laboratory Standards Institute), 2003).

[4] = test system: Escherichia coli strain ATCC 25922 (wild type); test: as above; assay type: cell-based; settings: Escherichia coli
Excerpt: as §2

[5] = test system: penicillinase-producing strain of Escherichia coli without associated resistance (EcR1); test: as above; assay type: cell-based; settings: Escherichia coli, antibiotic alone (second value of cell), read-out: Initial MICs
Excerpt: as §2

[6] = test system: ESBL-producing strain of Escherichia coli, having an associated resistance to the aminoglycosides (EcR3); test: as above; assay type: cell-based; settings: Escherichia coli, antibiotic alone (second value of cell), read-out: Initial MICs
Excerpt: as §2

[7] = test system: EcR2: Cephalosporinase-Hyperproducing Strain of Escherichia coli; test: Antibiogram, MIC by the VITEK 1 system; assay type: cell-based; settings: for MIC: Escherichia coli, read-out: MIC
Method: (§3) The bacterial and antibiogramidentification is carried out by the VITEK 1 system (bioMérieux) and by the disk diffusion technique

[8] = test system: EcR3: ESBL-Producing Escherichia coli; test: Antibiogram by the disk diffusion technique; assay type: cell-based; settings: for CA-SFM Interpretation: Cd CA-SFM 2011; for CLSI Interpretation: Cd CLSI 2011; for EUCAST Interpretation: Cd EUCAST 2011; for Diameter: Table C1; for Results: Table C1, against Dmin Dmax; for diameter in mm: Table C2
Method: The bacterial and antibiogramidentification is carried out by the VITEK 2 system (bioMerieux) and by the disk diffusion technique

[9] = test system: EcR2: Cephalosporinase-Hyperproducing Strain of Escherichia coli; test: Antibiogram by the disk diffusion technique; assay type: cell-based
Method: as §3

[10] = test system: Staphylococcus aureus strain ATCC 29213 (wild type); test: MIC of the compounds used alone, microdilution in a liquid medium (CLSI); assay type: cell-based; settings: Staphylococcus aureus
Excerpt: as §2

[11] = test system: Pseudomonas aeruginosa strain ATCC 27853 (wild type); test: as above; assay type: cell-based; settings: Pseudomonas aeruginosa
Excerpt: as §2

[12] = as above; assay type: cell-based, Staphylococcus aureus; settings: Staphylococcus aureus, MRSA; antibiotic alone (second value of cell); SaR4; read-out: MIC
Excerpt: as §2

[13] = test system: MRSA strain having a resistance to the aminoglycosides and fluoroquinolones (SaR3); test: as above; assay type: cell-based, Staphylococcus aureus; settings: Staphylococcus aureus, MRSA; antibiotic alone (second value of cell); SaR3; read-out: MIC
Excerpt: as §2

[14] = test system: MRSA strain without associated resistance (SaR1); test: as above; assay type: cell-based, Staphylococcus aureus; settings: Staphylococcus aureus, MRSA; antibiotic alone (second value of cell); SaR1; read-out: MIC
Excerpt: as §2

[15] = test system: SaR1: Meticillin-Resistant Staphylococcus aureus without Associated Resistance; test: Antibiogram, MIC by the VITEK 2 system; assay type: cell-based; settings: SaR1
Method: (§4) The bacterial and antibiogramidentification is carried out by the VITEK 2 system (bioMérieux)

[16] = test system: SaR3: Meticillin-Resistant Staphylococcus aureus; test: Antibiogram by the disk diffusion technique; assay type: cell-based
Method: The bacterial and antibiogramidentification is carried out by the VITEK 2 system (bioMérieux) and by the disk diffusion technique

[17] = test system: SaR1: Meticillin-Resistant Staphylococcus aureus without Associated Resistance; test: Antibiogram, inhibition diameter (Table D1); assay type: cell-based
Method: as §4

[18] = EcR1, Table A2, read-out: MIC mg/L (diameter in mm)
[19] = EcR1, VITEK 2, Table A1, read-out: MIC
[20] = ATCC25922, antibiotic alone (second value of cell), E. coli ATCC 25922, read-out: Initial MICs
[21] = ATCC29213, antibiotic alone (second value of cell), S. aureus ATCC 29213, read-out: Initial MICs

MIC [1, 18] [mg/L] | MIC [1, 19] [mg/L] | MIC [3] [µg/mL] | MIC [4, 20] [mg/L] | MIC [5] [µg/mL] | MIC [6] [µg/mL] | Compound | CA-SFM Interpretation [1] | CLSI Interpretation [1] | EUCAST Interpretation [1] | Results [1] | Diameter [2] [mm] | Results [2] | CA-SFM Interpretation [8] | CLSI Interpretation [8] | EUCAST Interpretation [8] | Diameter [8] [mm] | Results [8] | diameter in mm [8] [mm] | MIC [10, 21] [mg/L] | MIC [12] [µg/mL] | further results
≥ 32 | ≥ 32 | 256 | 4 | > 256 | > 256 | CC1(C)S[C@@H]2[C@H](NC(=O)[C@H](N)c3ccc(O)cc3)C(=O)N2[C@H]1C(=O)O [Amoxicillin] | Resistant | Resistant | Resistant | Resistant | 6 | Resistant | Resistant | Resistant | Resistant | 6 | Resistant | 6 |  |  | Results ([7]; EcR2, Table B1): Resistant; CA-SFM Interpretation ([7]; EcR2, from MIC, Cc CA-SFM 2011): Resistant; CLSI Interpretation ([7]; EcR2, from MIC, Cc CLSI 2011): Resistant; EUCAST Interpretation ([7]; EcR2, from MIC, Cc EUCAST 2011): Resistant; MIC ([7]; EcR2, VITEK 1, Table B1): ≥ 32 µg/mL; MIC ([7]; EcR2, Table B2, MIC): ≥ 32 µg/mL
≤ 1 | ≤ 1 | 4 | 0.06 | 0.06 | 128 | CO/N=C(\C(=O)N[C@@H]1C(=O)N2C(C(=O)O)=C(COC(C)=O)CS[C@H]12)c1csc(N)n1 [Cefotaxime] | Susceptible | Susceptible | Susceptible | Susceptible | 30 | Susceptible | Resistant | Resistant | Intermediate | 19 | Intermediate | 19 |  |  | Diameter ([9]; EcR2, disk diffusion, Table B1): 24; Results ([9]; EcR2, rows that print a diameter, Table B1): Intermediate; Diameter ([9]; EcR2, Table B2, diameters): 24 mm; CA-SFM Interpretation ([9]; EcR2, from diameter, CA-SFM 2011): Intermediate; CLSI Interpretation ([9]; EcR2, from diameter, CLSI 2011): Intermediate; EUCAST Interpretation ([9]; EcR2, from diameter, EUCAST 2011): Resistant
 |  |  |  |  |  | [H]/N=C(\N/C(=N/[H])NCCCCCCNC(=N)NC(=N)Nc1ccc(Cl)cc1)Nc1ccc(Cl)cc1 [Chlorhexidine] |  |  |  |  |  |  |  |  |  |  |  |  |  |  | MIC ([4]; ATCC25922, antiseptic alone, E. coli ATCC 25922, read-out: Initial MICs (mg/L), antiseptic (ATS)): < 1 mg/L; MIC ([10]; ATCC29213, antiseptic alone, S. aureus ATCC 29213, read-out: Initial MICs (mg/L), antiseptic (ATS)): < 1 mg/L; MIC ([11]; ATCC27853, antiseptic alone, P. aeruginosa ATCC 27853, read-out: Initial MICs (mg/L), antiseptic (ATS)): 4 mg/L
 |  |  |  |  |  | N=C(N)c1ccc(OCCCCCCOc2ccc(C(=N)N)cc2)cc1 [Hexamidine] |  |  |  |  |  |  |  |  |  |  |  |  |  |  | MIC ([4]; ATCC25922, read-out: Initial MICs (mg/L), antiseptic (ATS)): 8 mg/L; MIC ([10]; ATCC29213, read-out: Initial MICs (mg/L), antiseptic (ATS)): < 1 mg/L; MIC ([11]; ATCC27853, read-out: Initial MICs (mg/L), antiseptic (ATS)): 32 mg/L
 |  |  |  |  |  | C[C@H]1COc2c(N3CCN(C)CC3)c(F)cc3c(=O)c(C(=O)O)cn1c23 [Levofloxacin] |  |  |  |  |  |  |  |  |  |  |  |  | 0.125 | > 32 | MIC [13]: 8 µg/mL; MIC [14]: 0.25 µg/mL
 |  |  |  |  |  | CC(=O)NC[C@H]1CN(c2ccc(N3CCOCC3)c(F)c2)C(=O)O1 [Linezolid] |  |  |  |  |  |  |  |  |  |  |  |  | 2 | 2 | CA-SFM Interpretation ([15]; Cc CA-SFM 2011): Susceptible; CLSI Interpretation ([15]; Cc CLSI 2011): Susceptible; EUCAST Interpretation ([15]; Cc EUCAST 2011): Susceptible; Results ([15]; Table D1, from MIC): Susceptible; MIC ([15]; Table D2): 2 µg/mL (≈ 5.93 µM); MIC ([15]; Staphylococcus aureus, Table D1, read-out: MIC): 2 µg/mL (≈ 5.93 µM); MIC [13]: 2 µg/mL; MIC [14]: 2 µg/mL; CA-SFM Interpretation ([16]; Cd CA-SFM 2011): Susceptible; CLSI Interpretation ([16]; Cd CLSI 2011): Susceptible; EUCAST Interpretation ([16]; Cd EUCAST 2011): Susceptible; Diameter ([16]; Table E1): 26 mm; Results ([16]; Table E1, against Dmin Dmax): Susceptible; diameter in mm ([16]; Table E2): 26 mm; Diameter [17]: 29 mm; Results ([17]; from diameter, against Dmin Dmax): Susceptible
